Biological target: T1, Vtc1/Vtc3/Vtc4 complex (VTC complex) (Saccharomyces cerevisiae, UniProt P47075+Q02725, P47075:K300A/P47075:R302A/P47075:K320A)
T1 construct: full-length subunits co-expressed in Expi293F; Vtc1 C-terminal HA, Vtc3 N-terminal 3xFlag, Vtc4 C-terminal 2xStrep; detergent-purified; 3:1:1 pentamer; with Vacuolar transporter chaperone complex subunit 1
T1 sequence (P47075 1-721 K300A/R302A/K320A): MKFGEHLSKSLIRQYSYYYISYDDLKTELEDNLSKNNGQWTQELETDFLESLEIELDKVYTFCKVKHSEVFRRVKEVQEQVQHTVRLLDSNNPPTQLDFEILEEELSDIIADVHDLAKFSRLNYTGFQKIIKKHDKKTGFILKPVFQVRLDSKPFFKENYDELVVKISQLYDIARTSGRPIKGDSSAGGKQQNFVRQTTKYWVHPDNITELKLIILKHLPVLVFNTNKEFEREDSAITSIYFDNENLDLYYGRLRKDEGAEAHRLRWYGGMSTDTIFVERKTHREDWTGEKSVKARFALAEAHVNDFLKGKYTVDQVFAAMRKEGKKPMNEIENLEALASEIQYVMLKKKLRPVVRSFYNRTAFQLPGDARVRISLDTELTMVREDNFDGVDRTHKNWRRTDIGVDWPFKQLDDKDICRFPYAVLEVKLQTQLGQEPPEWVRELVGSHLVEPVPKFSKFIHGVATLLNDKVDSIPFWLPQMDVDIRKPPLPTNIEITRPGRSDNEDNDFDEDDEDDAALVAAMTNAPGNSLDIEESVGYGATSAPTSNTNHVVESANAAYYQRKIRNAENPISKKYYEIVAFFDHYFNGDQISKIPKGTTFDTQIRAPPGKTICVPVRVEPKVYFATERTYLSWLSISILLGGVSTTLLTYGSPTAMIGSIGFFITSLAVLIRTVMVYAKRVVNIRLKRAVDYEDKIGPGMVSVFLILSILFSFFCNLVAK
T1 sequence (Q02725 1-835): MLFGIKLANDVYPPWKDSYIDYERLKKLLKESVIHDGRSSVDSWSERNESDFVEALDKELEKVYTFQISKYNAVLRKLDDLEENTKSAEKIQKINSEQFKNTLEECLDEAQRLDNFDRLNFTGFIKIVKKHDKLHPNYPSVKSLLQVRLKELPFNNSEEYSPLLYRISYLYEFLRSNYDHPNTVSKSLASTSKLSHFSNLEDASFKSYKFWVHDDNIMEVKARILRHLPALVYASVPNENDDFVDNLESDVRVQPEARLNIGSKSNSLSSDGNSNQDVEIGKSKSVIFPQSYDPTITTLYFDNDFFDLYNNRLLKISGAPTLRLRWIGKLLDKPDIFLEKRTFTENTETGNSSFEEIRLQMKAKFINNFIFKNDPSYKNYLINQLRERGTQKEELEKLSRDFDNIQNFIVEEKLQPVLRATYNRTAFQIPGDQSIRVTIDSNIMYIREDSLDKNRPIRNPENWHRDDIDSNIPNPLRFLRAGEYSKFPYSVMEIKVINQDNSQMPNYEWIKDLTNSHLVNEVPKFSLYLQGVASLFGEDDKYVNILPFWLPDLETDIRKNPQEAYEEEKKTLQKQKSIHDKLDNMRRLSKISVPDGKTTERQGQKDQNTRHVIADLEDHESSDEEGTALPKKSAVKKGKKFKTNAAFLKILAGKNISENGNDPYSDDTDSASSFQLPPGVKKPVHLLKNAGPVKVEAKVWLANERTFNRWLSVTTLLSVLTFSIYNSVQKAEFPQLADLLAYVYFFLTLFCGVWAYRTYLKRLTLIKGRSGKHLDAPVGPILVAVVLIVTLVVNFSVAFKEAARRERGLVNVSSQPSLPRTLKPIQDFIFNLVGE
T1 sequence (P40046 2-129 partner): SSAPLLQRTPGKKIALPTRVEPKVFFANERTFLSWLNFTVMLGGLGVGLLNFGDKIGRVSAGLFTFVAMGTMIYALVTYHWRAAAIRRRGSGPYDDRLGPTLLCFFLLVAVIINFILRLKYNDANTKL
Test: polyP synthesis, TBE-PAGE
Format: biochemical
Settings: activator; 15 mM ATP, 10 mM MgCl2, 1 mM MnCl2, 0.5 mM pyrophosphate, 27 °C; TTM cleft (second site) mutant

Structure (SMILES): O=P(O)(O)O[C@H]1[C@H](OP(=O)(O)O)[C@@H](OP(=O)(O)O)[C@H](OP(=O)(O)O)[C@@H](OP(=O)(O)O)[C@H]1OP(=O)(O)O [InsP6]
- polyP synthesis, TBE-PAGE: had little impact on InsP6-stimulated polyP synthesis by VTC complex

From paper PMC9911596 (Nature Communications, 2023)
